Experimental data taken from PubChem BioAssay (NCI).
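Each compound was tested at five concentrations against cells in 96-well plates for 48 hours. GI50 is the concentration that inhibits growth by half. TGI denotes the concentration required for complete inhibition of growth.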

Assays:
Assay in all cases: NCI-60 cell line screen, 48 h
[1] = tested on: 786-0 renal
[2] = tested on: A498 renal
[3] = tested on: A549 NSCLC
[4] = tested on: ACHN renal
[5] = tested on: BT-549 breast
[6] = tested on: CAKI-1 renal
[7] = tested on: CCRF-CEM leukemia
[8] = tested on: COLO 205 colon
[9] = tested on: DU-145 prostate
[10] = tested on: HCC-2998 colon
[11] = tested on: HCT-116 colon
[12] = tested on: HCT-15 colon
[13] = tested on: HL-60(TB) leukemia
[14] = tested on: HOP-62 NSCLC
[15] = tested on: HS 578T breast
[16] = tested on: HT29 colon
[17] = tested on: IGROV1 ovarian
[18] = tested on: K-562 leukemia
[19] = tested on: KM12 colon
[20] = tested on: LOX IMVI melanoma
[21] = tested on: M14 melanoma
[22] = tested on: MALME-3M melanoma
[23] = tested on: MCF7 breast
[24] = tested on: MDA-MB-231 breast
[25] = tested on: MDA-MB-435
[26] = tested on: MOLT-4 leukemia
[27] = tested on: NCI-H226 lung
[28] = tested on: NCI-H23 lung
[29] = tested on: NCI-H460 lung
[30] = tested on: NCI-H522 lung
[31] = tested on: NCI/ADR-RES ovarian
[32] = tested on: OVCAR-3 ovarian
[33] = tested on: OVCAR-4 ovarian
[34] = tested on: OVCAR-5 ovarian
[35] = tested on: OVCAR-8 ovarian
[36] = tested on: PC-3 prostate
[37] = tested on: RPMI-8226 leukemia
[38] = tested on: RXF 393 renal
[39] = tested on: SF-268 CNS
[40] = tested on: SF-539 CNS
[41] = tested on: SK-MEL-2 melanoma
[42] = tested on: SK-MEL-28 melanoma
[43] = tested on: SK-MEL-5 melanoma
[44] = tested on: SK-OV-3 ovarian
[45] = tested on: SN12C renal
[46] = tested on: SNB-19 CNS
[47] = tested on: SR leukemia
[48] = tested on: SW-620 colon
[49] = tested on: T-47D breast
[50] = tested on: TK-10 renal
[51] = tested on: U251 CNS
[52] = tested on: UACC-257 melanoma
[53] = tested on: UACC-62 melanoma
[54] = tested on: UO-31 renal
[55] = tested on: EKVX NSCLC
[56] = tested on: HOP-92 NSCLC
[57] = tested on: SF-295 CNS
[58] = tested on: SNB-75 CNS

CN(C)c1ccc(O)c2c1CC1CC3C(N(C)C)C(=O)C(C(N)=O)=C(O)C3(O)C(=O)C1=C2O (configuration not stated)
GI50 [1]: 11.5 µM
TGI [1]: 39.7 µM
GI50 [2]: 6.96 µM
TGI [2]: 35.9 µM
GI50 [3]: 9.43 µM
TGI [3]: 59.2 µM
GI50 [4]: 8.4 µM
TGI [4]: > 100 µM
GI50 [5]: 13.6 µM
TGI [5]: 45 µM
GI50 [6]: 5.74 µM
TGI [6]: 91.4 µM
GI50 [7]: 19.5 µM
TGI [7]: > 100 µM
GI50 [8]: 13.7 µM
TGI [8]: 27 µM
GI50 [9]: 13.1 µM
TGI [9]: 59.1 µM
GI50 [10]: 11.9 µM
TGI [10]: 39.1 µM
GI50 [11]: 11.6 µM
TGI [11]: > 100 µM
GI50 [12]: 5.59 µM
TGI [12]: > 100 µM
GI50 [13]: 12.7 µM
TGI [13]: 48.9 µM
GI50 [14]: 19.1 µM
TGI [14]: 62.9 µM
GI50 [15]: 14.4 µM
TGI [15]: 59.4 µM
GI50 [16]: 15.4 µM
TGI [16]: 42.9 µM
GI50 [17]: 5.78 µM
TGI [17]: 24.2 µM
GI50 [18]: 16.8 µM
TGI [18]: > 100 µM
GI50 [19]: 13.1 µM
TGI [19]: 32.2 µM
GI50 [20]: 6.21 µM
TGI [20]: 37.3 µM
GI50 [21]: 11.2 µM
TGI [21]: > 100 µM
GI50 [22]: 16.3 µM
TGI [22]: 41.7 µM
GI50 [23]: 20.2 µM
TGI [23]: > 100 µM
GI50 [24]: 19.1 µM
TGI [24]: 47 µM
GI50 [25]: 17.9 µM
TGI [25]: > 100 µM
GI50 [26]: 22.6 µM
TGI [26]: 74.1 µM
GI50 [27]: 20.6 µM
TGI [27]: > 100 µM
GI50 [28]: 15.2 µM
TGI [28]: 56 µM
GI50 [29]: 10.6 µM
TGI [29]: 29.6 µM
GI50 [30]: 13.6 µM
TGI [30]: 46 µM
GI50 [31]: 17.3 µM
TGI [31]: 73.6 µM
GI50 [32]: 12.8 µM
TGI [32]: 39 µM
GI50 [33]: 24.2 µM
TGI [33]: > 100 µM
GI50 [34]: 15.6 µM
TGI [34]: > 100 µM
GI50 [35]: 9.84 µM
TGI [35]: 81.7 µM
GI50 [36]: 12.6 µM
TGI [36]: 48.7 µM
GI50 [37]: 5.86 µM
TGI [37]: 26.8 µM
GI50 [38]: 4.84 µM
TGI [38]: 21.6 µM
GI50 [39]: 18.9 µM
TGI [39]: 92.3 µM
GI50 [40]: 14.6 µM
TGI [40]: 35.5 µM
GI50 [41]: 5.66 µM
TGI [41]: 22.9 µM
GI50 [42]: 22.1 µM
TGI [42]: 59.1 µM
GI50 [43]: 12 µM
TGI [43]: 28 µM
GI50 [44]: 14.6 µM
TGI [44]: 85.4 µM
GI50 [45]: 18.1 µM
TGI [45]: 89.9 µM
GI50 [46]: 18.8 µM
TGI [46]: > 100 µM
GI50 [47]: 15.7 µM
TGI [47]: > 100 µM
GI50 [48]: 15.3 µM
TGI [48]: > 100 µM
GI50 [49]: 27.7 µM
TGI [49]: > 100 µM
GI50 [50]: 5.66 µM
TGI [50]: 35.5 µM
GI50 [51]: 6.84 µM
TGI [51]: 31.6 µM
GI50 [52]: 17 µM
TGI [52]: 52.1 µM
GI50 [53]: 9.18 µM
TGI [53]: 22 µM
GI50 [54]: 7.47 µM
TGI [54]: 73 µM

O=C(NC1CCCCC1)NS(=O)(=O)c1ccc(-n2nc3c(c2-c2cccs2)Cc2ccccc2-3)cc1
GI50 [1]: 32.3 µM
TGI [1]: > 100 µM
GI50 [2]: 57.2 µM
TGI [2]: > 100 µM
GI50 [3]: 28 µM
TGI [3]: > 100 µM
GI50 [4]: 17.3 µM
TGI [4]: 33.6 µM
GI50 [5]: 33.7 µM
TGI [5]: 94.1 µM
GI50 [6]: 16 µM
TGI [6]: 44.4 µM
GI50 [7]: 1.15 µM
TGI [7]: 3.79 µM
GI50 [8]: 23.3 µM
TGI [8]: 51.1 µM
GI50 [9]: 31.9 µM
TGI [9]: > 100 µM
GI50 [55]: 28.6 µM
TGI [55]: 65.4 µM
GI50 [10]: 6.63 µM
TGI [10]: 24.1 µM
GI50 [11]: 31.7 µM
TGI [11]: > 100 µM
GI50 [12]: 17.8 µM
TGI [12]: 41 µM
GI50 [13]: 25 µM
TGI [13]: 48.8 µM
GI50 [14]: > 100 µM
TGI [14]: > 100 µM
GI50 [56]: 14.3 µM
TGI [56]: 29.6 µM
GI50 [15]: 37.5 µM
TGI [15]: > 100 µM
GI50 [16]: 34.3 µM
TGI [16]: > 100 µM
GI50 [17]: 4.12 µM
TGI [17]: 23 µM
GI50 [18]: 10 µM
TGI [18]: 35 µM
GI50 [19]: 34.9 µM
TGI [19]: > 100 µM
GI50 [20]: 5.66 µM
TGI [20]: 33.5 µM
GI50 [21]: 64.1 µM
TGI [21]: > 100 µM
GI50 [23]: > 100 µM
TGI [23]: > 100 µM
GI50 [24]: 27.9 µM
TGI [24]: > 100 µM
GI50 [25]: 32.5 µM
TGI [25]: > 100 µM
GI50 [26]: 4.99 µM
TGI [26]: 37.8 µM
GI50 [27]: 21.3 µM
TGI [27]: 64.9 µM
GI50 [28]: 12.8 µM
TGI [28]: 33.8 µM
GI50 [29]: 93 µM
TGI [29]: > 100 µM
GI50 [30]: 12.3 µM
TGI [30]: 40.3 µM
GI50 [31]: 20.4 µM
TGI [31]: 65.4 µM
GI50 [32]: 24.5 µM
TGI [32]: > 100 µM
GI50 [33]: 27 µM
TGI [33]: > 100 µM
GI50 [34]: 26.6 µM
TGI [34]: 68.6 µM
GI50 [35]: 25.3 µM
TGI [35]: 90.5 µM
GI50 [36]: 14.5 µM
TGI [36]: 31.7 µM
GI50 [37]: 10.7 µM
TGI [37]: 30.6 µM
GI50 [38]: 29.2 µM
TGI [38]: 84.1 µM
GI50 [39]: > 100 µM
TGI [39]: > 100 µM
GI50 [57]: 34.9 µM
TGI [57]: > 100 µM
GI50 [40]: 27.6 µM
TGI [40]: 61.8 µM
GI50 [41]: 23.6 µM
TGI [41]: 64.7 µM
GI50 [42]: 34.2 µM
TGI [42]: > 100 µM
GI50 [43]: 18.7 µM
TGI [43]: 43 µM
GI50 [44]: 44.5 µM
TGI [44]: > 100 µM
GI50 [45]: 21.5 µM
TGI [45]: 47.7 µM
GI50 [46]: 56.8 µM
TGI [46]: > 100 µM
GI50 [58]: 52.5 µM
TGI [58]: > 100 µM
GI50 [47]: 1.57 µM
TGI [47]: 4.01 µM
GI50 [48]: 20.7 µM
TGI [48]: > 100 µM
GI50 [49]: 39.7 µM
TGI [49]: > 100 µM
GI50 [50]: 17.5 µM
TGI [50]: 34.9 µM
GI50 [51]: 25.6 µM
TGI [51]: > 100 µM
GI50 [52]: 24.8 µM
TGI [52]: 72.7 µM
GI50 [53]: 19.3 µM
TGI [53]: 53 µM
GI50 [54]: 15.4 µM
TGI [54]: 39.9 µM
